ChEMBL document CHEMBL1201862, “PubChem BioAssay data set” (2004)
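Five compound concentrations were applied to cells in 96-well plates for 48 hours; endpoints were derived by simple linear interpolation of the resulting dose-response curve. At the GI50, growth is halved.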 Active and inactive are the calls of the source. Rule as the data show it: active = GI50 up to about 1.1 µM and inactive = higher.

Columns and labels:
Experiment in all cases: DTP human tumour cell line panel, 48 h
786-0 = system: 786-0
A549 = system: A549
ACHN = system: ACHN
DU-145 = system: DU-145
HL-60 = system: HL-60
HOP-92 = system: HOP-92
K562 = system: K562
MDA-MB-435 = system: MDA-MB-435
MDA-N = system: MDA-N
Malme-3M = system: Malme-3M
NCI-H226 = system: NCI-H226
NCI/ADR-RES = system: NCI/ADR-RES
SF-539 = system: SF-539
SK-MEL-28 = system: SK-MEL-28
SK-MEL-5 = system: SK-MEL-5
SK-OV-3 = system: SK-OV-3
SN12C = system: SN12C
SNB-19 = system: SNB-19
SNB-75 = system: SNB-75
UACC-62 = system: UACC-62

| Structure (SMILES) | GI50 (786-0) | GI50 (A549) | GI50 (ACHN) | GI50 (DU-145) | GI50 (HL-60) | GI50 (HOP-92) | GI50 (K562) | GI50 (MDA-MB-435) | GI50 (MDA-N) | GI50 (Malme-3M) | GI50 (NCI-H226) | GI50 (NCI/ADR-RES) | GI50 (SF-539) | GI50 (SK-MEL-28) | GI50 (SK-MEL-5) | GI50 (SK-OV-3) | GI50 (SN12C) | GI50 (SNB-19) | GI50 (SNB-75) | GI50 (UACC-62) |
| --- | --- | --- | --- | --- | --- | --- | --- | --- | --- | --- | --- | --- | --- | --- | --- | --- | --- | --- | --- | --- |
| O=C1c2ccccc2-c2nnc(-c3ccc(Cl)cc3)cc21 | > 10 µM (inactive) | > 10 µM (inactive) | > 10 µM (inactive) | > 10 µM (inactive) | > 10 µM (inactive) | > 10 µM (inactive) | > 10 µM (inactive) | > 10 µM (inactive) | > 10 µM (inactive) | > 10 µM (inactive) | > 10 µM (inactive) | > 10 µM (inactive) | > 10 µM (inactive) | > 10 µM (inactive) | > 10 µM (inactive) | > 10 µM (inactive) | > 10 µM (inactive) | > 10 µM (inactive) | > 10 µM (inactive) | > 10 µM (inactive) |
| CCSC(=O)N1c2ccc(OC)cc2C=CC1C#N (stereo not given) | 0.00344 µM (active) | 0.00565 µM (active) | 0.0041 µM (active) | 0.00168 µM (active) | 0.00347 µM (active) | 0.1 µM (active) | 0.00632 µM (active) | 0.00292 µM (active) | 0.00306 µM (active) | 0.1 µM (active) | 0.00759 µM (active) | 0.00131 µM (active) | 0.00177 µM (active) | 0.308 µM (active) | 0.00152 µM (active) | 0.00425 µM (active) | 0.00782 µM (active) | 0.0176 µM (active) | 0.00417 µM (active) | 0.00877 µM (active) |
| COc1ccc(OC)c(C2CCc3nc4nc(N)nc(N)c4cc3C2)c1 (stereo not given) | 2.69 µM (inactive) | 14.7 µM (inactive) | 12 µM (inactive) | 5.66 µM (inactive) | 2.64 µM (inactive) | 2.19 µM (inactive) | 2.31 µM (inactive) | 2.04 µM (inactive) | 2.13 µM (inactive) | 1.92 µM (inactive) | 8.47 µM (inactive) | > 100 µM (inactive) | 3.01 µM (inactive) | 2.4 µM (inactive) | 5.05 µM (inactive) | 4.1 µM (inactive) | 1.77 µM (inactive) | 2.43 µM (inactive) | 1.94 µM (inactive) | 2.03 µM (inactive) |
| O=C1/C(=C\c2ccccc2)c2ccccc2N1Cc1ccccc1 | 7.01 µM (inactive) | 11.6 µM (inactive) | 12.5 µM (inactive) | 12.4 µM (inactive) | 4.08 µM (inactive) | 3.85 µM (inactive) | 2.88 µM (inactive) | 3.72 µM (inactive) | 5.18 µM (inactive) | 6.92 µM (inactive) | 10.8 µM (inactive) | 10.6 µM (inactive) | > 10 µM (inactive) | 11.1 µM (inactive) | 11 µM (inactive) | 11.1 µM (inactive) | 11.9 µM (inactive) | 10.3 µM (inactive) | 9.66 µM (inactive) | 7.1 µM (inactive) |
| Brc1ccc2c([C@H]3CN[C@@H](c4c[nH]c5cc(Br)ccc45)CN3)c[nH]c2c1 | 1.65 µM (inactive) | 2.8 µM (inactive) | 2.94 µM (inactive) | 2.96 µM (inactive) | 1.95 µM (inactive) | 3.24 µM (inactive) | 1.74 µM (inactive) | 1.72 µM (inactive) | 1.66 µM (inactive) | 2.56 µM (inactive) | 7.26 µM (inactive) | 4.9 µM (inactive) | 2.89 µM (inactive) | 14.2 µM (inactive) | 4.91 µM (inactive) | 8.99 µM (inactive) | 5.19 µM (inactive) | 9.14 µM (inactive) | 5.27 µM (inactive) | 9.82 µM (inactive) |
